# Data from ChEMBL document CHEMBL3120100, “Identification and biological evaluation of flavonoids from the fruits of Prunus mume” (2014).
# Assays:
# [1] = biological target: T1, Tartrate-resistant acid phosphatase type 5 (Mus musculus) (UniProt Q05117); assay: Inhibition of TRAP activity in RANKL-induced Balb/c mouse RAW264.7 cells at 10 uM after 1 hr by ELISA relative to control; assay type: cell-based
# T1 sequence (whole entry): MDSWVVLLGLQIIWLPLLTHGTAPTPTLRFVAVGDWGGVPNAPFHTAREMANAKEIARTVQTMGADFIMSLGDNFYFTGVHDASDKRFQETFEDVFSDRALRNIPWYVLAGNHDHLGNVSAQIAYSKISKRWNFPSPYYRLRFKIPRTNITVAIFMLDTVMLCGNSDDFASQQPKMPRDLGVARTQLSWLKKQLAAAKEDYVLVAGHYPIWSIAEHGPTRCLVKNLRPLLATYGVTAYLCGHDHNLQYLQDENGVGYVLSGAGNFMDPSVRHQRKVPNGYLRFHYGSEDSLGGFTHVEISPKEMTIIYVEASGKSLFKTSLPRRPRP
# [2] = biological target: T1, Tartrate-resistant acid phosphatase type 5 (Mus musculus); assay: Inhibition of TRAP activity in RANKL-induced Balb/c mouse RAW264.7 cells at 1 uM after 1 hr by ELISA relative to control; assay type: cell-based
# [3] = Antiosteoporotic activity in alpha-MEM-induced C57BL/6 mouse MC3T3-E1 cells assessed as increase in mineralization by measuring calcium deposition at 5 uM by Alizarin Red staining assay relative to control; assay type: functional
# [4] = Antiosteoporotic activity in C57BL/6 mouse MC3T3-E1 cells assessed as increase in mineralization by measuring calcium deposition at 5 uM by Alizarin Red staining assay relative to control; assay type: functional
# [5] = Antiosteoporotic activity in alpha-MEM-induced C57BL/6 mouse MC3T3-E1 cells assessed as increase in collagen synthesis at 5 uM by Sirius Red-based colorimetric assay relative to control; assay type: functional
# [6] = Antiosteoporotic activity in C57BL/6 mouse MC3T3-E1 cells assessed as increase in collagen synthesis at 5 uM by Sirius Red-based colorimetric assay relative to control; assay type: functional
# [7] = Antioxidant activity assessed as reduction of Cu2+ to Cu+ at 10 uM; assay type: functional
# [8] = Antioxidant activity assessed as trolox equivalent of APPH-induced peroxyl radical scavenging activity measured every 2 mins by ORAC fluorescence assay; assay type: functional
# [9] = Antioxidant activity assessed as trolox equivalent of APPH-induced peroxyl radical scavenging activity at 1 uM measured every 2 mins by ORAC fluorescence assay; assay type: functional
# [10] = biological target: T1, Tartrate-resistant acid phosphatase type 5 (Mus musculus); assay: Inhibition of TRAP activity in Balb/c mouse RAW264.7 cells at 10 uM after 1 hr by ELISA relative to control; assay type: cell-based
SMILES,TRAP activity (% of control) [1] [%],inhibition [2] [%],inhibition [10] [%],Activity [3] [%],Activity [4] [%],Activity [5] [%],Activity [6] [%],Activity [7] [µM],Activity [8],Activity [9] [µM]
C[C@@H]1O[C@@H](O[C@H]2[C@H](Oc3c(-c4ccc(O)c(O)c4)oc4cc(O)cc(O)c4c3=O)O[C@H](CO)[C@H](O)[C@@H]2O)[C@H](O)[C@H](O)[C@H]1O,128,101,–,104.72,176.44,96.59,224.92,19.4,Dose-dependent effect,3.36
O=c1c(O[C@@H]2O[C@H](CO)[C@@H](O)[C@H](O)[C@H]2O)c(-c2ccc(O)c(O)c2)oc2cc(O)cc(O)c12 [ISOQUERCETIN],82.9,76.6,–,107.58,181.25,112.49,261.95,21.3,Dose-dependent effect,4.4
C[C@@H]1O[C@@H](OC[C@H]2O[C@@H](Oc3c(-c4ccc(O)c(O)c4)oc4cc(O)cc(O)c4c3=O)[C@H](O)[C@@H](O)[C@@H]2O)[C@H](O)[C@H](O)[C@H]1O [RUTIN],71.7,78,146,103.24,173.94,100.09,233.08,30.1,Dose-dependent effect,3.78

# Continued, in another order:
TRAP activity (% of control) [1] [%],inhibition [2] [%],inhibition [10] [%],SMILES,Activity [3] [%],Activity [4] [%],Activity [5] [%],Activity [6] [%],Activity [7] [µM],Activity [8],Activity [9] [µM]
85.6,78.5,–,Oc1ccc([C@@]23Oc4cc(O)cc(O)c4[C@@H](c4c(O)cc(O)c5c4O[C@H](c4ccc(O)c(O)c4)[C@H](O)C5)[C@@H]2O3)cc1,89.84,151.36,77.16,179.68,29.9,Dose-dependent effect,5.42
107,98,–,Oc1cc(O)c2c(c1)O[C@@]1(c3ccc(O)c(O)c3)O[C@H]1[C@@H]2c1c(O)cc(O)c2c1O[C@H](c1ccc(O)c(O)c1)[C@H](O)C2,109.85,185.08,103.38,240.74,34.7,Dose-dependent effect,5.22
84,78.3,–,Oc1cc(O)c2c(c1)O[C@H](c1ccc(O)c(O)c1)[C@H](O)C2 [(-)-EPICATECHIN],111.92,188.57,105.69,246.13,25.7,Dose-dependent effect,4.49
